This is an account of results in PubChem BioAssay AID248 (DTP/NCI, 2004).

The experiment concerns L1210 leukemia ip in BDF1 mice, survival T/C. Put plainly: NCI In Vivo Anticancer Drug Screen. Data for tumor model L1210 Leukemia (intraperitoneal) in B6D2F1 (BDF1) mice. The settings on record: endpoint: mean survival time, higher = longer survival. The gist of the method: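 Transplanted-tumor mice were given test agent; controls received vehicle only. Survival readings from the two groups were divided (treated over control).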

Where [1] appears, read: dose: 100.0 mg/kg/injection, schedule: Q04DX003 (ip), vehicle: saline with Tween-80.
Where [2] appears, read: dose: 200.0 mg/kg/injection, schedule: Q04DX003 (ip), vehicle: saline with Tween-80.
Where [3] appears, read: dose: 400.0 mg/kg/injection, schedule: Q04DX003 (ip), vehicle: saline with Tween-80.
[4] abbreviates: dose: 100.0 mg/kg/injection, schedule: Q04DX003 (ip), vehicle: saline.
Setting [5] is: dose: 50.0 mg/kg/injection, schedule: Q01DX001 (ip), vehicle: carboxymethylcellulose (CMC).
Where [6] appears, read: dose: 100.0 mg/kg/injection, schedule: Q01DX001 (ip), vehicle: carboxymethylcellulose (CMC).
[7] abbreviates: dose: 25.0 mg/kg/injection, schedule: Q04DX003 (ip), vehicle: saline.
The mark [8] stands for this setting: dose: 50.0 mg/kg/injection, schedule: Q04DX003 (ip), vehicle: saline.
The mark [9] stands for this setting: dose: 200.0 mg/kg/injection, schedule: Q01DX001 (ip), vehicle: carboxymethylcellulose (CMC).
[10] abbreviates: dose: 400.0 mg/kg/injection, schedule: Q01DX001 (ip), vehicle: carboxymethylcellulose (CMC).

Values joined by “and” are separate entries in the source; they are usually repeats but may differ in a detail not shown here. Equal values may be shown once. Toxic doses and inconclusive results are not listed.

For `O=C(O)c1ccc(C(=O)O)c(C(=O)O)c1.[NH-]C1CCCCC1[NH-].[Pt+2]`, the T/C reads like this: (dose: 1.6 mg/kg/injection, schedule: Q01DX009 (ip), vehicle: sodium bicarbonate) 198 % of control; (dose: 3.2 mg/kg/injection, schedule: Q01DX009 (ip), vehicle: sodium bicarbonate) 256 % of control; (dose: 3.3 mg/kg/injection, schedule: Q01DX009 (ip), vehicle: saline) 187 % of control; (dose: 4.8 mg/kg/injection, schedule: Q01DX009 (ip), vehicle: sodium bicarbonate) 250 % of control; (dose: 6.4 mg/kg/injection, schedule: Q01DX009 (ip), vehicle: sodium bicarbonate) 179 % of control; (dose: 6.5 mg/kg/injection, schedule: Q01DX001 (ip), vehicle: saline) 112 % of control. Also, the T/C (dose: 6.5 mg/kg/injection, schedule: Q01DX009 (ip), vehicle: saline) was 194 % of control; the T/C (dose: 13.0 mg/kg/injection, schedule: Q01DX001 (ip), vehicle: saline) was 115 % of control; the T/C (dose: 13.0 mg/kg/injection, schedule: Q01DX009 (ip), vehicle: saline) was 152 % of control; the T/C (dose: 20.0 mg/kg/injection, schedule: Q01DX001 (ip), vehicle: sodium bicarbonate) is 220 % of control; the T/C (dose: 26.0 mg/kg/injection, schedule: Q01DX009 (ip), vehicle: saline) is 102 % of control; the T/C (dose: 40.0 mg/kg/injection, schedule: Q01DX001 (ip), vehicle: sodium bicarbonate) is 205 % of control.

Turning to `CC(C)(C)N1CC(C(=O)c2ccccc2)C1c1ccccc1` (stereo not drawn), the T/C runs as follows: (dose: 100.0 mg/kg/injection, schedule: Q01DX001 (ip), vehicle: saline) 94 % of control; (dose: 100.0 mg/kg/injection, schedule: Q01DX009 (ip), vehicle: Klucel (hydroxypropylcellulose) (HPC)) 96 % of control; under setting [1], 96 % of control and 107 % of control; (dose: 200.0 mg/kg/injection, schedule: Q01DX001 (ip), vehicle: saline) 94 % of control; (dose: 200.0 mg/kg/injection, schedule: Q01DX009 (ip), vehicle: Klucel (hydroxypropylcellulose) (HPC)) 101 % of control; under setting [2], 90 % of control and 94 % of control. The T/C is, setting by setting: (dose: 400.0 mg/kg/injection, schedule: Q01DX001 (ip), vehicle: saline) 92 % of control; (dose: 400.0 mg/kg/injection, schedule: Q01DX009 (ip), vehicle: Klucel (hydroxypropylcellulose) (HPC)) 100 % of control; under setting [3], 96 % of control and 98 % of control.

With `NC1CCCCC1`, the T/C is, setting by setting: under setting [4], 109 % of control; (dose: 200.0 mg/kg/injection, schedule: Q04DX003 (ip), vehicle: saline) 102 % of control; (dose: 400.0 mg/kg/injection, schedule: Q04DX003 (ip), vehicle: saline) 100 % of control.

For the molecule `CCOC(=O)CCC1(C(=O)OC)C(=O)CCCCC/C=C/1C(=O)OC` (stereo not drawn), the T/C under setting [1] is 99 % of control, the T/C under setting [2] is 101 % of control and the T/C under setting [3] is 106 % of control.

As to `O=[N+]([O-])/C=C/c1ccc([N+](=O)[O-])o1`, the T/C reads like this: (dose: 3.0 mg/kg/injection, schedule: Q01DX001 (ip), vehicle: Klucel (hydroxypropylcellulose) (HPC)) 106 % of control; (dose: 6.0 mg/kg/injection, schedule: Q01DX001 (ip), vehicle: Klucel (hydroxypropylcellulose) (HPC)) 98 % of control; (dose: 12.0 mg/kg/injection, schedule: Q01DX001 (ip), vehicle: Klucel (hydroxypropylcellulose) (HPC)) 92 % of control; (dose: 12.5 mg/kg/injection, schedule: Q01DX001 (ip), vehicle: Klucel (hydroxypropylcellulose) (HPC)) 107 % of control.

In the case of `CCC1CC2c3cc(OC)c(OC)cc3CCN2CC1(O)c1ccccc1` (stereo not drawn), the T/C by setting is: (dose: 25.0 mg/kg/injection, schedule: Q01DX001 (ip), vehicle: carboxymethylcellulose (CMC)) 92 % of control; (dose: 25.0 mg/kg/injection, schedule: Q04DX003 (ip), vehicle: carboxymethylcellulose (CMC)) 97 % of control; under setting [5], 95 % of control; (dose: 50.0 mg/kg/injection, schedule: Q04DX003 (ip), vehicle: carboxymethylcellulose (CMC)) 97 % of control; under setting [6], 103 % of control and 109 % of control; (dose: 100.0 mg/kg/injection, schedule: Q04DX003 (ip), vehicle: carboxymethylcellulose (CMC)) 100 % of control.

Regarding `O=C1NCC(Nc2ccc(Br)cc2)C(=O)N1` (stereo not drawn), the T/C was 96 % of control (dose: 100.0 mg/kg/injection, schedule: Q01DX Z (ip), vehicle: methylcellulose (MC)) and 94 % of control (dose: 200.0 mg/kg/injection, schedule: Q01DX Z (ip), vehicle: methylcellulose (MC)).

For `ClCCOCC1CO1` (stereo not drawn), the T/C by setting is: under setting [7], 92 % of control; under setting [8], 88 % of control; under setting [4], 97 % of control.

Regarding `CCOC(=O)C1(C2=NC(C)(C)CC(C)O2)CCCCC1` (stereo not drawn), the T/C runs as follows: (dose: 100.0 mg/kg/injection, schedule: Q01DX009 (ip), vehicle: other) 102 % of control; (dose: 200.0 mg/kg/injection, schedule: Q01DX009 (ip), vehicle: other) 100 % of control; (dose: 400.0 mg/kg/injection, schedule: Q01DX009 (ip), vehicle: other) 107 % of control.

As to `CCCCNS(=O)(=O)c1ccc(NC(=O)c2ccc3ccccc3c2O)c([N+](=O)[O-])c1`, the T/C reads like this: under setting [1], 90 % of control; under setting [2], 88 % of control; under setting [3], 88 % of control.

`CC(C)C(C(=O)O)N1C(=O)C2C3CCC(C3)C2C1=O` (stereo not drawn): the T/C was 86 % of control under setting [7]; 93 % of control under setting [8]; 89 % of control under setting [1]; 96 % of control under setting [4]; 103 % of control under setting [2]; 98 % of control under setting [3].

Turning to `C/C=C\C=C\C(=O)OC`, the T/C is 99 % of control under setting [1], 89 % of control under setting [2] and 92 % of control under setting [3].

Take `CC(=O)Nc1c(Cl)c(Cl)c2c(c1Cl)C(=O)c1cc(Cl)ccc1-2`: the T/C under setting [6] is 92 % of control; the T/C (dose: 100.0 mg/kg/injection, schedule: Q01DX Z (ip), vehicle: carboxymethylcellulose (CMC)) is 102 % of control; the T/C under setting [9] is 90 % of control; the T/C (dose: 200.0 mg/kg/injection, schedule: Q01DX Z (ip), vehicle: carboxymethylcellulose (CMC)) was 98 % of control; the T/C under setting [10] is 95 % of control; the T/C (dose: 400.0 mg/kg/injection, schedule: Q01DX Z (ip), vehicle: carboxymethylcellulose (CMC)) was 98 % of control. Moreover, the T/C (dose: 800.0 mg/kg/injection, schedule: Q01DX Z (ip), vehicle: carboxymethylcellulose (CMC)) is 102 % of control.

As for `CCOC(=O)c1cc(OCC)nc(SC)n1`, the T/C by setting is: (dose: 25.0 mg/kg/injection, schedule: Q01DX Z (ip), vehicle: methylcellulose (MC)) 86 % of control; (dose: 50.0 mg/kg/injection, schedule: Q01DX Z (ip), vehicle: methylcellulose (MC)) 100 % of control.

For `CC(O)CC[P+](c1ccccc1)(c1ccccc1)c1ccccc1` (stereo not drawn), the T/C is 101 % of control (dose: 75.0 mg/kg/injection, schedule: Q01DX001 (ip), vehicle: other) and 93 % of control (dose: 150.0 mg/kg/injection, schedule: Q01DX001 (ip), vehicle: other).

For the molecule `CC1(C)C2CCC(OC(=O)c3ccc([N+](=O)[O-])cc3)C1C2` (stereo not drawn), the T/C was 102 % of control under setting [5], 102 % of control under setting [6], 93 % of control under setting [9] and 87 % of control under setting [10].

As for `O=C(Sc1ccccc1)C1OC1c1ccccc1` (stereo not drawn), the T/C runs as follows: (dose: 100.0 mg/kg/injection, schedule: Q04DX003 (ip), vehicle: alcohol) 98 % of control; (dose: 200.0 mg/kg/injection, schedule: Q04DX003 (ip), vehicle: alcohol) 92 % of control; (dose: 400.0 mg/kg/injection, schedule: Q04DX003 (ip), vehicle: alcohol) 86 % of control.

For the molecule `CC(C)(Cl)N=Nc1ccc([N+](=O)[O-])cc1[N+](=O)[O-]`, the T/C was 96 % of control under setting [1], 98 % of control under setting [2] and 88 % of control under setting [3].
